Source: ChEMBL document CHEMBL3297661, “1-Substituted-5-[(3,5-dinitrobenzyl)sulfanyl]-1H-tetrazoles and their isosteric analogs: A new class of selective antitubercular agents active against drug-susceptible and multidrug-resistant mycobacteria” (Eur J Med Chem, 2014)

Experiments:
Pseudomonas aeruginosa [1] = test: Antibacterial activity against Pseudomonas aeruginosa ATCC 9027 after 48 hrs by broth microdilution method; assay type: functional; conditions: ATCC 9027, 48 h
Candida albicans [2] = test: Antifungal activity against Candida albicans ATCC 44859 after 24 hrs by broth microdilution method; assay type: functional; conditions: ATCC 44859, 24 h
Candida albicans [3] = test: Antifungal activity against Candida albicans ATCC 44859 after 48 hrs by broth microdilution method; assay type: functional; conditions: ATCC 44859, 48 h
Candida tropicalis [4] = test: Antifungal activity against Candida tropicalis 156 after 24 hrs by broth microdilution method; assay type: functional; conditions: Candida tropicalis, 156, 24 h
Candida tropicalis [5] = test: Antifungal activity against Candida tropicalis 156 after 48 hrs by broth microdilution method; assay type: functional; conditions: Candida tropicalis, 156, 48 h
Pichia kudriavzevii [6] = test: Antifungal activity against Candida krusei E28 after 24 hrs by broth microdilution method; assay type: functional; conditions: E28, 24 h
Pichia kudriavzevii [7] = test: Antifungal activity against Candida krusei E28 after 48 hrs by broth microdilution method; assay type: functional; conditions: E28, 48 h
Nakaseomyces glabratus [8] = test: Antifungal activity against Candida glabrata 20/I after 24 hrs by broth microdilution method; assay type: functional
Nakaseomyces glabratus [9] = test: Antifungal activity against Candida glabrata 20/I after 48 hrs by broth microdilution method; assay type: functional
Trichosporon asahii [10] = test: Antifungal activity against Trichosporon asahii 1188 after 24 hrs by broth microdilution method; assay type: functional; conditions: Trichosporon asahii, 1188, 24 h
Trichosporon asahii [11] = test: Antifungal activity against Trichosporon asahii 1188 after 48 hrs by broth microdilution method; assay type: functional; conditions: Trichosporon asahii, 1188, 48 h
Aspergillus fumigatus [12] = test: Antifungal activity against Aspergillus fumigatus 231 after 24 hrs by broth microdilution method; assay type: functional, organism-based; conditions: Aspergillus fumigatus, 231, 24 h
Aspergillus fumigatus [13] = test: Antifungal activity against Aspergillus fumigatus 231 after 48 hrs by broth microdilution method; assay type: functional, organism-based; conditions: Aspergillus fumigatus, 231, 48 h
Lichtheimia corymbifera [14] = test: Antifungal activity against Absidia corymbifera 272 after 24 hrs by broth microdilution method; assay type: functional, organism-based; conditions: Lichtheimia corymbifera, 272, 24 h
Lichtheimia corymbifera [15] = test: Antifungal activity against Absidia corymbifera 272 after 48 hrs by broth microdilution method; assay type: functional, organism-based; conditions: Lichtheimia corymbifera, 272, 48 h
[16] = test system: Trichophyton mentagrophytes; test: Antifungal activity against Trichophyton mentagrophytes 445 after 72 hrs by broth microdilution method; assay type: functional, organism-based; conditions: Trichophyton mentagrophytes, 445, 72 h
[17] = test system: Trichophyton mentagrophytes; test: Antifungal activity against Trichophyton mentagrophytes 445 after 120 hrs by broth microdilution method; assay type: functional, organism-based; conditions: Trichophyton mentagrophytes, 445, 120 h
[18] = Cytotoxicity against human HeLa cells assessed as cell viability at 30 uM after 48 hrs by MTT assay; assay type: cell-based; conditions: read-out: Activity
[19] = Cytotoxicity against human HuH7 cells assessed as cell viability at 30 uM after 48 hrs by MTT assay; assay type: cell-based, Huh-7; conditions: read-out: Activity
[20] = Cytotoxicity against human HepG2 cells assessed as cell viability at 30 uM after 48 hrs by MTT assay; assay type: cell-based; conditions: read-out: Activity
[21] = Cytotoxicity against MDCK2 cells assessed as cell viability at 30 uM after 48 hrs by MTT assay; assay type: cell-based, Canis lupus familiaris, MDCK-II; conditions: dog, read-out: Activity
HeLa = test: Cytotoxicity against human HeLa cells assessed as reduction in cell viability after 48 hrs by MTT assay; assay type: cell-based
[22] = Cytotoxicity against human HuH7 cells assessed as reduction in cell viability after 48 hrs by MTT assay; assay type: cell-based; conditions: Huh-7, 48 h
[23] = Cytotoxicity against MDCK2 cells assessed as reduction in cell viability after 48 hrs by MTT assay; assay type: cell-based; conditions: Canis lupus familiaris, MDCK-II
HepG2 = test: Cytotoxicity against human HepG2 cells assessed as reduction in cell viability after 48 hrs by MTT assay; assay type: cell-based; conditions: HepG2, 48 h
[24] = test system: Mycobacterium tuberculosis; test: Antimycobacterial activity against Mycobacterium tuberculosis CNCTC My 331/88 after 14 days by micromethod; assay type: functional; conditions: CNCTC My 331/88, 336 h
[25] = test system: Mycobacterium tuberculosis; test: Antimycobacterial activity against Mycobacterium tuberculosis CNCTC My 331/88 after 21 days by micromethod; assay type: functional; conditions: CNCTC My 331/88, 504 h
Mycobacterium avium [26] = test: Antimycobacterial activity against Mycobacterium avium CNCTC My 330/88 after 14 days by micromethod; assay type: functional; conditions: CNCTC My 330/88, 336 h
Mycobacterium avium [27] = test: Antimycobacterial activity against Mycobacterium avium CNCTC My 330/88 after 21 days by micromethod; assay type: functional; conditions: CNCTC My 330/88, 504 h
Mycobacterium kansasii [28] = test: Antimycobacterial activity against Mycobacterium kansasii CNCTC My 235/80 after 7 days by micromethod; assay type: functional; conditions: CNCTC My 235/80, 168 h
Mycobacterium kansasii [29] = test: Antimycobacterial activity against Mycobacterium kansasii CNCTC My 235/80 after 14 days by micromethod; assay type: functional; conditions: CNCTC My 235/80, 336 h
Mycobacterium kansasii [30] = test: Antimycobacterial activity against Mycobacterium kansasii CNCTC My 235/80 after 21 days by micromethod; assay type: functional; conditions: CNCTC My 235/80, 504 h
Mycobacterium kansasii [31] = test: Antimycobacterial activity against Mycobacterium kansasii 6509/96 after 7 days by micromethod; assay type: functional; conditions: 6509/96, 168 h
Mycobacterium kansasii [32] = test: Antimycobacterial activity against Mycobacterium kansasii 6509/96 after 14 days by micromethod; assay type: functional; conditions: 6509/96, 336 h
Mycobacterium kansasii [33] = test: Antimycobacterial activity against Mycobacterium kansasii 6509/96 after 21 days by micromethod; assay type: functional; conditions: 6509/96, 504 h
Staphylococcus aureus [34] = test: Antibacterial activity against Staphylococcus aureus ATCC 6538 after 24 hrs by broth microdilution method; assay type: functional; conditions: ATCC 6538, 24 h
Staphylococcus aureus [35] = test: Antibacterial activity against Staphylococcus aureus ATCC 6538 after 48 hrs by broth microdilution method; assay type: functional; conditions: ATCC 6538, 48 h
Staphylococcus aureus [36] = test: Antibacterial activity against methicillin-resistant Staphylococcus aureus H 5996/08 after 24 hrs by broth microdilution method; assay type: functional; conditions: H 5996/08, 24 h
Staphylococcus aureus [37] = test: Antibacterial activity against methicillin-resistant Staphylococcus aureus H 5996/08 after 48 hrs by broth microdilution method; assay type: functional; conditions: H 5996/08, 48 h
[38] = test system: Staphylococcus epidermidis; test: Antibacterial activity against Staphylococcus epidermidis H 6966/08 after 24 hrs by broth microdilution method; assay type: functional; conditions: H 6966/08, 24 h
[39] = test system: Staphylococcus epidermidis; test: Antibacterial activity against Staphylococcus epidermidis H 6966/08 after 48 hrs by broth microdilution method; assay type: functional; conditions: H 6966/08, 48 h
Enterococcus faecalis [40] = test: Antibacterial activity against Enterococcus faecalis J 14365/08 after 24 hrs by broth microdilution method; assay type: functional; conditions: J 14365/08, 24 h
Enterococcus faecalis [41] = test: Antibacterial activity against Enterococcus faecalis J 14365/08 after 48 hrs by broth microdilution method; assay type: functional; conditions: J 14365/08, 48 h
Escherichia coli [42] = test: Antibacterial activity against Escherichia coli ATCC 8739 after 24 hrs by broth microdilution method; assay type: functional; conditions: ATCC 8739, ATCC 8739, 24 h
Escherichia coli [43] = test: Antibacterial activity against Escherichia coli ATCC 8739 after 48 hrs by broth microdilution method; assay type: functional; conditions: ATCC 8739, ATCC 8739, 48 h
Klebsiella pneumoniae [44] = test: Antibacterial activity against Klebsiella pneumoniae D 11750/08 after 24 hrs by broth microdilution method; assay type: functional; conditions: D 11750/08, 24 h
Klebsiella pneumoniae [45] = test: Antibacterial activity against Klebsiella pneumoniae D 11750/08 after 48 hrs by broth microdilution method; assay type: functional; conditions: D 11750/08, 48 h
Klebsiella pneumoniae [46] = test: Antibacterial activity against extended spectrum beta-lactamase producing Klebsiella pneumoniae J 14368/08 after 24 hrs by broth microdilution method; assay type: functional; conditions: J 14368/08, 24 h
Klebsiella pneumoniae [47] = test: Antibacterial activity against extended spectrum beta-lactamase producing Klebsiella pneumoniae J 14368/08 after 48 hrs by broth microdilution method; assay type: functional; conditions: J 14368/08, 48 h
Pseudomonas aeruginosa [48] = test: Antibacterial activity against Pseudomonas aeruginosa ATCC 9027 after 24 hrs by broth microdilution method; assay type: functional; conditions: ATCC 9027, 24 h

O=[N+]([O-])c1cc(CSc2nnnn2Cc2ccccc2)cc([N+](=O)[O-])c1
> 30 µM: IC50 (HeLa) | IC50 [22] | IC50 [23] | IC50 (HepG2)
94%: viability at 48 h, 30 µM [20]
> 500 µM: IC95 (Pseudomonas aeruginosa [1]) | IC80 (Candida albicans [2]) | IC80 (Candida albicans [3]) | IC80 (Candida tropicalis [4]) | IC80 (Candida tropicalis [5]) | IC80 (Pichia kudriavzevii [6]) | IC80 (Pichia kudriavzevii [7]) | IC80 (Nakaseomyces glabratus [8]) | IC80 (Nakaseomyces glabratus [9]) | IC80 (Trichosporon asahii [10]) | IC80 (Trichosporon asahii [11]) | IC50 (Aspergillus fumigatus [12]) | IC50 (Aspergillus fumigatus [13]) | IC50 (Lichtheimia corymbifera [14]) | IC50 (Lichtheimia corymbifera [15]) | IC50 [16] | IC50 [17] | IC95 (Staphylococcus aureus [34]) | IC95 (Staphylococcus aureus [35]) | IC95 (Staphylococcus aureus [36]) | IC95 (Staphylococcus aureus [37]) | IC95 [38] | IC95 [39] | IC95 (Enterococcus faecalis [40]) | IC95 (Enterococcus faecalis [41]) | IC95 (Escherichia coli [42]) | IC95 (Escherichia coli [43]) | IC95 (Klebsiella pneumoniae [44]) | IC95 (Klebsiella pneumoniae [45]) | IC95 (Klebsiella pneumoniae [46]) | IC95 (Klebsiella pneumoniae [47]) | IC95 (Pseudomonas aeruginosa [48])
91%: viability at 48 h, 30 µM [18]
4 µM: MIC (Mycobacterium kansasii [32]) | MIC (Mycobacterium kansasii [33])
8 µM: MIC (Mycobacterium kansasii [29]) | MIC (Mycobacterium kansasii [30])
250 µM: MIC (Mycobacterium avium [26]) | MIC (Mycobacterium avium [27])
2 µM: MIC [25] | MIC (Mycobacterium kansasii [28]) | MIC (Mycobacterium kansasii [31])
87%: viability at 48 h, 30 µM [21]
1 µM: MIC [24]
112%: viability at 48 h, 30 µM [19]

O=[N+]([O-])c1ccc(C[Se]c2nnnn2C2CCCCC2)c([N+](=O)[O-])c1
11%: viability at 48 h, 30 µM [21]
250 µM: IC80 (Trichosporon asahii [11])
49%: viability at 48 h, 30 µM [19]
62 µM: MIC (Mycobacterium kansasii [32]) | MIC (Mycobacterium kansasii [33])
8 µM: MIC [25]
> 30 µM: IC50 [22]
4 µM: MIC [24] | MIC (Mycobacterium kansasii [28])
29 µM: IC50 (HeLa)
500 µM: IC50 (Lichtheimia corymbifera [14])
31.2 µM: IC50 [16] | IC50 [17] | IC95 (Staphylococcus aureus [34]) | IC95 (Staphylococcus aureus [35]) | IC95 (Staphylococcus aureus [36]) | IC95 (Staphylococcus aureus [37])
16 µM: MIC (Mycobacterium kansasii [29]) | MIC (Mycobacterium kansasii [30]) | MIC (Mycobacterium kansasii [31])
11 µM: IC50 (HepG2)
32%: viability at 48 h, 30 µM [18]
62.5 µM: IC80 (Nakaseomyces glabratus [8]) | IC80 (Nakaseomyces glabratus [9]) | IC80 (Trichosporon asahii [10])
32 µM: MIC (Mycobacterium avium [26]) | MIC (Mycobacterium avium [27])
4%: viability at 48 h, 30 µM [20]
< 7.5 µM: IC50 [23]
> 500 µM: IC95 (Pseudomonas aeruginosa [1]) | IC80 (Candida tropicalis [4]) | IC80 (Candida tropicalis [5]) | IC80 (Pichia kudriavzevii [6]) | IC80 (Pichia kudriavzevii [7]) | IC50 (Aspergillus fumigatus [12]) | IC50 (Aspergillus fumigatus [13]) | IC50 (Lichtheimia corymbifera [15]) | IC95 (Escherichia coli [42]) | IC95 (Escherichia coli [43]) | IC95 (Klebsiella pneumoniae [44]) | IC95 (Klebsiella pneumoniae [45]) | IC95 (Klebsiella pneumoniae [46]) | IC95 (Klebsiella pneumoniae [47]) | IC95 (Pseudomonas aeruginosa [48])
15.6 µM: IC80 (Candida albicans [2]) | IC80 (Candida albicans [3]) | IC95 [38] | IC95 [39] | IC95 (Enterococcus faecalis [40]) | IC95 (Enterococcus faecalis [41])
